In a melting point compilation (Tetko et al.; mined from patent text by program, amines drawn as free bases though some values may be those of a salt):

melting point | Compound
72 to 74 °C | O=C(Oc1ccc(Cl)c(OCC2CC2(Cl)Cl)c1)N1CCCC1 (centres undefined)
93 to 98 °C | COC(=O)Cc1ccc(Oc2ccc(S(C)(=O)=O)cc2)cc1
63 to 65 °C | CCOC(=O)c1ccc(NCCCCc2cccs2)cc1
99 to 100 °C | CC(C)NCC(O)COc1nccnc1Cl (centres undefined)
142 to 145 °C | CS(=O)(=O)c1ccccc1NC(=O)c1ccccc1O
204 to 206 °C | CSc1cn(C)c2c(-c3ccccc3)csc2c1=O
170 °C | CC(C)N(C(=O)c1ccc(N)cc1)C(C)C
118 to 120 °C | CSc1ccc(COc2c(C)c(C)c3c(c2C)C(c2ccc(C(C)C)cc2)C(C)(C)O3)cc1 (centres undefined)
185 to 187 °C | COc1ccc(-c2cc3cc(OC)cc(C=NO)c3o2)cc1
146 to 147 °C | CCOC(=O)CCC(NC(=O)c1ccc(CNCC2CNc3nc(NC(=O)C(C)(C)C)nc(O)c3C2)cc1)C(=O)OCC (centres undefined)
218 to 219 °C | O=C1NCC(CCl)C1(c1ccccc1)c1ccccc1 (centres undefined)
70 to 75 °C | COc1c(C)cccc1C(=O)O
157 to 159 °C | O=[N+]([O-])c1cccc(-c2cc(Cc3ccc(F)cc3)cc(/C=N/O)c2O)c1
118 to 120 °C | CCOC(=O)C(=O)Nc1c(C)cc(C(F)(F)F)cc1[N+](=O)[O-]
150 °C | COC(=O)C(C)(C)N1CCC(N(Cc2ccc(-c3ccc(C(F)(F)F)cc3)cc2)C(=O)Cn2c(CCc3cccc(F)c3F)nc(=O)c3cccnc32)CC1
310 to 312 °C | COc1cc(-c2ccc(O)c(C34CC5CC(CC(C5)C3)C4)c2)cc(C=C2SC(N3CCOCC3)=NC2=O)c1O
217 °C | Cc1cc(-c2ccc(C(F)(F)F)cc2)cc(-c2ccnc(-c3ccnc(N)c3)n2)n1
112 to 114 °C | CC(=O)OCC1=NC(NC(=O)Nc2cccc(C)c2)C(=O)N(CC(=O)N2CCCCCCC2)c2c(C)cccc21 (centres undefined)
133 to 135 °C | CCCCCCCCNC(=O)c1cc(C(C)(C)C)c(O)c(C(C)(C)C)c1
109 to 110 °C | Cc1ccc(I)cc1Cc1ccc(-c2ccc(F)cc2)s1
150 to 152 °C | CCC1c2cccn2-c2ccc(F)cc2N1S(=O)(=O)c1ccc(O)cc1 (centres undefined)
130 to 133 °C | O=C(N1CCC2(C=Cc3ccccc32)CC1)N1CCCc2ccccc21
115 to 116 °C | Cn1c(=O)n(CC2CO2)n(CC2CO2)c1=O (centres undefined)
124 to 126 °C | CCCCS(=O)(=O)NC(Cc1ccc(N2CCN(CCC3CCN(C(=O)OC(C)(C)C)CC3)C2=O)cc1)C(=O)OC (centres undefined)

melting point | Compound
228 to 230 °C | CNC(=O)CC(C)(C)c1ccc(C(=O)Nc2cn3cc(Cl)ccc3n2)cc1
280 to 282 °C | c1cnc2c(c1)cc(-c1nnn[nH]1)c1nnnn12
> 310 °C | CCOc1ccc(CC)cc1-c1nc2ccc(C(=O)O)cc2c(=O)[nH]1
157 to 158 °C | COc1ccc(-n2cnc3ccc(-c4nnc(SCc5cccc(C#N)c5)o4)cc32)cc1
148 to 150 °C | C#Cc1c(C(C)C)nc(-c2ccccc2)n1-c1ccc(F)cc1
211 to 212 °C | CCc1nc2c(N)nc3cc(OCc4nc5ccccc5s4)ccc3c2s1
109 to 110 °C | COC(=O)c1cc(OCCCN2CCN(c3cccc4sccc34)CC2)n(C)n1
330 °C | CC(=O)NC1c2ccccc2-c2[nH]c(=O)c3nccn3c21 (centres undefined)
296 to 298 °C | N#CC(=Cc1cc(O)c(O)c([N+](=O)[O-])c1)C(N)=O
108 to 110 °C | CCOC(=O)c1cc(Cl)n2c(C)nnc2n1
205 to 207 °C | O=C(O)c1cn(-c2cccc(Br)c2)cn1
208 to 209 °C | O=C(O)C1=Cc2cc(-c3ccccc3)ccc2CC1
112 to 113 °C | O=C(O)c1ccc(C(F)F)o1
134 to 135 °C | CCCn1c(CCOC)nc2c(N)nc3cc(OCCCNC(=O)OC(C)(C)C)ccc3c21
147 to 150 °C | COc1ncnc(N2CCc3ccccc3CC2)c1[N+](=O)[O-]
80 to 93 °C | CCOC(=O)Cc1nccc(NC=O)n1
139 to 141 °C | CC(C)c1cc(C(=O)Nc2ccc(CCC(=O)O)cc2)oc1C(C)C
146 to 147 °C | COc1ccc(CNC(=O)C(=O)NCCc2cccs2)c(OC)c1
66 to 68 °C | CSc1ccc2nccn2n1
73 to 75 °C | O=C1CN(c2cccc(OCc3ccc(F)cc3)c2)NC(=O)N1
95 to 96 °C | COC(=O)CCc1oc(-n2ccnc2)nc1-c1ccc(Cl)cc1
> 300 °C | CCOC(=O)c1ncn2c1c(=O)[nH]c1cc(S(C)(=O)=O)ccc12
163 to 164 °C | COCC(=O)Nc1cc2c(cc1C#N)C(Nc1ccc(C(=O)OC(C)(C)C)cc1)CC2 (centres undefined)
44 °C | CC(CC(=O)OC(C)C)N=c1sc2ccccc2s1 (centres undefined)

melting point | Compound
288 to 289 °C | O=C(O)c1cn2c(ccc3ccc(Cl)cc32)n1
95 to 98 °C | CC(C)[C@H](NC(=O)N(C)Cc1csc(NC(=O)OC(C)(C)C)n1)C(=O)N[C@@H](Cc1ccccc1)[C@@H](O)C[C@H](Cc1ccccc1)NC(=O)OCc1cccnc1
168 to 171 °C | CC(C)(C)C(=O)OCn1nc2ccc(NCCCN3CCC(OC(c4ccccc4)c4ccccc4)CC3)nn2c1=O
256 to 258 °C | CCCCc1cccn2c(=O)c(-c3nnn[nH]3)cnc12
179 to 181 °C | Cc1ccc(C(=O)c2cccc(S)n2)cc1
135 to 136 °C | COc1ccc(C2OCC(C)(C)C(C(=O)NCCC(=O)O)O2)cc1 (centres undefined)
174 to 176 °C | COCC(=S)Nc1c(Cl)c(C)cc2nc(OC)c(OC)nc12
82 °C | O=C(O)Cc1ccc(OCCNC(=O)C2Cc3ccccc3N2S(=O)(=O)c2ccc(-c3cccc(C(F)(F)F)c3)c(F)c2)cc1 (centres undefined)
72 to 74 °C | COC(=O)c1cc(C(C)=O)ccc1OC
79 to 80 °C | CCOc1ccccc1CNC(=O)c1ccc2cnccc2n1
39 to 40 °C | CCOC(=O)COc1cccc(Cl)c1
137 to 138 °C | Cc1cc(C)n(C(=O)C(Cc2ccccc2)NS(=O)(=O)c2ccc(Cl)cc2)n1 (centres undefined)
206 to 208 °C | Cc1ccc2c(c1)-c1ncnn1CC(=O)N2
162 to 163 °C | COc1ccc(N2CCN(c3c(C)c(C)c4c(c3C)C(OCc3ccc(C(=O)O)cc3)C(C)(C)O4)CC2)cc1 (centres undefined)
56.2 to 59.2 °C | CC(C)(C)c1ccc(C=NOCCCOc2ccc(CC(=O)O)cc2)cc1
174 to 176 °C | CCCCn1cnc2c(OC)nc(Nc3ccc(OCC)nc3)nc21
63 to 64 °C | COc1ccccc1OCC(=O)NCCO[N+](=O)[O-]
57 °C | CCOC(=O)CCNCC(O)COc1cccc(C)c1 (centres undefined)
76 to 81 °C | COC(=O)CCc1ccc(NC(=O)N(NC(=O)c2ccccc2)c2ccc(C#N)cc2)cc1
96 to 97 °C | CC(C)=CCOc1ccc(C(=O)C=Cc2ccc(F)cc2)c(O)c1
220 to 230 °C | COc1cc(N)ccc1C=NNC(=N)NN=Cc1ccc(N)cc1OC
246 to 248 °C | COc1cccc([C@H]2O[C@H](CC(=O)Nc3c(C)c(C)c4oc(C(=O)O)cc4c3C)C(=O)N(CC(C)(C)CO)c3ccc(Cl)cc32)c1OC
88.5 to 90.5 °C | COC(=O)c1ccc(C(=O)Oc2ccc([Si](C)(C)C)cc2C(C)=O)cc1
113 to 114 °C | O=C(NCCCCc1ccccc1)Oc1ccc2oc3ccccc3c2c1

melting point | Compound
96 to 98 °C | COC(=O)CCCc1cc2nc(Cl)ccc2n1S(=O)(=O)c1ccc(F)c(F)c1
224 °C | Cn1c(=O)c(S(C)(=O)=O)c(N2CCN(C(=O)c3cccs3)CC2)c2ccccc21
40 to 41 °C | CCOC(=O)c1c(C(F)(F)F)nc(C(F)F)c(C(=O)OC)c1F
233 to 236 °C | Nc1nc2nc(N3CCNCC3)nc(N)c2nc1-c1ccccc1
115 °C | C=C(C)n1c(=O)n(CCCCl)c2ccccc21
212 to 214 °C | CC(=O)N1CCC(n2c(=O)[nH]c3ccccc32)CC1
228 to 230 °C | O=C1N(Cc2ccccn2)c2cccc(-c3cnc4ccccc4c3)c2C12COc1cc3c(cc12)OCCO3 (centres undefined)
150 °C | CCCCCS(=O)(=O)NC(=O)/C=C/c1ccc(OCCOC)cc1Oc1ncc(NC(=O)OC(C)(C)C)cc1C
284 to 287 °C | CCOC(=O)Cn1c(-c2cc3c(cc2N)OCO3)nc2ccccc21
112 to 114 °C | CNS(=O)(=O)c1cc(C(=O)CCC(=O)OC)ccc1Cl
173 °C | CNc1cc(Oc2ccc3ncccc3c2)ncn1
> 250 °C | CC(C)C1=C(C#N)C(c2cccc(Cl)c2Cl)c2c[nH]nc2N1 (centres undefined)
208 to 210 °C | COc1cccc([C@H]2O[C@H](CC(=O)O)C(=O)N(CC(C)(CO)CO)c3ccc(Cl)cc32)c1OC
123 to 125 °C | COC1=C(C#N)C(=O)N(C)C1=O
160 to 162 °C | CC=CCN(C)c1ncnc2c1ncn2C1OC(CO)C(O)C1O (centres undefined)
159 to 160 °C | C[C@@H]1C[C@H](C)CN(C(=O)[C@@H]2Cc3ccccc3N2c2cccnn2)C1
103 to 105 °C | Brc1ccc(OCc2ccc3ccccc3n2)cc1
62 to 66 °C | COC(=O)c1cccc(NC(=O)[C@H](Cc2ccccc2)NC(=O)OC(C)(C)C)c1
131 to 138 °C | COc1ccc(CNc2nnc(NCCCO)c3ccc(Cl)cc23)cc1Cl
209 to 211 °C | CC1CCC2(OC1)OC1CC3C4CCC5CC(=O)CCC5(C)C4CCC3(C)C1C2C (centres undefined)
179 to 181 °C | COc1c(Cl)ccc(-c2cc(N)c(Cl)c(C(=O)NOCc3cncs3)n2)c1F
82 to 85 °C | COC(=O)C1=C(C)NC(C)=C(C(=O)OCCN2CCC(C(c3ccccc3)c3ccccc3)CC2)C1c1cccc([N+](=O)[O-])c1 (centres undefined)
168 to 174 °C | Cc1ccc(C(=S)c2cc(F)cc3c2NC(=O)C3)cc1

Compound | melting point
COCc1nnc2n1-c1sc(Cl)cc1C(c1ccccc1[N+](=O)[O-])=NC2 | 204 to 205 °C
Fc1ccc(C(OP2OCCO2)(c2ccc(F)cc2)c2ccccc2F)cc1 | 163 to 164 °C
CC(C)c1ccc(C2(OC(=O)N(C)C)C(=O)c3ccccc3C2=O)c(OC(=O)N(C)C)c1 | 203 to 205 °C
COc1ccc(C2CNCc3c2ccc(OC)c3Cl)cc1OC (centres undefined) | 130 to 132 °C
